# Assay results as given in patent US10104891B2 (priority 2014, dated 2018).
# What was measured:
# Format in all cases: in vivo
# Phytophthora infestans = experiment: whole plant or invertebrate; details: tomato late blight; control value vs untreated section
# Plasmopara viticola = experiment: Test 3: control effect against grape downy mildew; details: control value vs untreated section
# Description: (§1) A 10% wettable powder created according to the Pharmaceutical Formulation Example 1 was diluted with a Tween20 solution prepared to a concentration of 1/5000, then the compound of formula [1] was prepared to a concentration of 4 ppm. Further, the compound of formula [1] in Test 4 was adjusted to a concentration of 1,000 ppm.
# <Test 3 Test of Control Effect Against Grape Downy Mildew>
# (§2) Test suspension was applied to grape seedling (species: Neomuscat) in an amount of 20 ml per seedling. One day after application, zoospore suspension of Plasmopara viticola adjusted to a concentration of 1.0×10^4 units/ml was misted/inoculated, and the seedlings were incubated in a moist chamber adjusted to 22° C. for 16 hr. Then, the onset of the disease was induced in the chamber, and the lesion area rate on the leaves 5 days after inoculation was investigated to compute the control value using the formula below. control value={1−onset area rate of the leaves that were applied the test agent/onset area rate of untreated leaves}×100 Computational formula of the control value: […]
# [1] = test system: Pseudoperonospora cubensis; experiment: Test 2: control effect against cucumber downy mildew; details: control value vs untreated section
# Description: as §1
# <Test 2 Test of Control Effect Against Cucumber Downy Mildew>
# as §2, with “cucumber at the 2 leaf stage” for “grape seedling”, “Sagami hanjiro)” for “Neomuscat)”, “Pseudoperonospora cubensis” for “Plasmopara viticola”
SMILES,control value (Test 1) (Phytophthora infestans),control value (Test 3) (Plasmopara viticola),control value (Test 2) [1]
O=C(Cn1nc(C(F)F)cc1C(F)F)N1CCC(c2nc(C3OCc4cccc(Cl)c4CO3)cs2)CC1 (stereo not drawn) [Compound 1-58],100,100,100
CCCCCCCCS(=O)(=O)Oc1cccc2c1COC(c1csc(C3CCN(C(=O)Cn4nc(C(F)F)cc4C(F)F)CC3)n1)OC2 (stereo not drawn) [Compound 1-59],100,100,100
O=C(Cn1nc(C(F)F)cc1C(F)F)N1CCC(c2nc(C3OCc4ccc(C(F)(F)F)cc4CO3)cs2)CC1 (stereo not drawn) [Compound 1-60],100,100,100
"O=C(Cn1nc(C(F)F)cc1C(F)F)N1CCC(c2nc(C3OCc4cc5c(cc4CO3)CCC5)cs2)CC1 [Compound 1-61, 4-[4-(1,5,7,8,9-pentahydro-3H-2,4-indenodioxepin-3-yl)-2-thiazolyl]-1-[2-[3,5-bis(difluoromethyl)-1H-pyrazole-1-yl]acetyl]piperidine]",100,100,100
CON=Cc1cccc2c1COC(c1csc(C3CCN(C(=O)Cn4nc(C(F)(F)F)cc4C)CC3)n1)OC2 (stereo not drawn) [Compound 1-63],100,100,100
Cc1cc(OS(C)(=O)=O)c2c(c1C)COC(c1csc(C3CCN(C(=O)Cn4nc(C(F)(F)F)cc4C)CC3)n1)OC2 (stereo not drawn) [Compound 1-64],100,100,100
Cc1cc(C(F)(F)F)nn1CC(=O)N1CCC(c2nc(C3OCc4c(Cl)ccc(OS(C)(=O)=O)c4CO3)cs2)CC1 (stereo not drawn) [Compound 1-65],100,100,100
Cc1cc(C(F)(F)F)nn1CC(=O)N1CCC(c2nc(C3OCc4c(Br)ccc(OS(C)(=O)=O)c4CO3)cs2)CC1 (stereo not drawn) [Compound 1-66],100,100,100
CC(C)S(=O)(=O)Oc1cccc2c1COC(c1csc(C3CCN(C(=O)Cn4nc(C(F)(F)F)cc4C(F)(F)F)CC3)n1)OC2 (stereo not drawn) [Compound 1-67],100,100,100
CCCCS(=O)(=O)Oc1cccc2c1COC(c1csc(C3CCN(C(=O)Cn4nc(C(F)(F)F)cc4C(F)(F)F)CC3)n1)OC2 (stereo not drawn) [Compound 1-68],100,100,100
Cc1cc(C(F)(F)F)nn1CC(=O)N1CCC(c2nc(C3OCc4cccc(C=NN(C)C)c4CO3)cs2)CC1 (stereo not drawn) [Compound 1-71],100,100,100
O=C(Cn1nc(C(F)F)cc1C(F)F)N1CCC(c2nc(C3OCc4cccc(-c5ccccc5)c4CO3)cs2)CC1 (stereo not drawn) [Compound 1-73],90,100,100
COc1ccc([N+](=O)[O-])c2c1COC(c1csc(C3CCN(C(=O)Cn4nc(C(F)F)cc4C(F)F)CC3)n1)OC2 (stereo not drawn) [Compound 1-74],100,100,100
O=C(Cn1nc(C(F)F)cc1C(F)F)N1CCC(c2nc(C3OCc4ccccc4CO3)cs2)CC1 [Compound 1-76],100,100,100
O=C(Cn1nc(C(F)F)cc1C(F)F)N1CCC(c2nc(C3OCc4cc5ccccc5cc4CO3)cs2)CC1 [Compound 1-77],100,100,100
O=C(Cn1nc(C(F)F)cc1C(F)F)N1CCC(c2nc(C3OCc4ccc(F)cc4CO3)cs2)CC1 (stereo not drawn) [Compound 1-80],100,100,100

SMILES,control value (Test 1) (Phytophthora infestans),control value (Test 3) (Plasmopara viticola),control value (Test 2) [1]
O=C(Cn1nc(C(F)F)cc1C(F)F)N1CCC(c2nc(C3OCc4ccc(C(F)(F)F)cc4CO3)cs2)CC1 (stereo not drawn) [Compound 1-81],100,100,100
COc1ccc(Br)c2c1COC(c1csc(C3CCN(C(=O)Cn4nc(C(F)(F)F)cc4C(F)(F)F)CC3)n1)OC2 (stereo not drawn) [Compound 1-82],100,100,100
COc1ccc([N+](=O)[O-])c2c1COC(c1csc(C3CCN(C(=O)Cn4nc(C(F)(F)F)cc4C(F)(F)F)CC3)n1)OC2 (stereo not drawn) [Compound 1-83],100,100,100
O=C(Cn1nc(C(F)(F)F)cc1C(F)(F)F)N1CCC(c2nc(C3OCc4ccccc4CO3)cs2)CC1 [Compound 1-85],100,100,100
COc1ccc(OC(F)(F)F)c2c1COC(c1csc(C3CCN(C(=O)Cn4nc(C(F)(F)F)cc4C)CC3)n1)OC2 (stereo not drawn) [Compound 1-86],100,100,100
CS(=O)(=O)Oc1ccc(F)c2c1COC(c1csc(C3CCN(C(=O)Cn4nc(C(F)(F)F)cc4C(F)(F)F)CC3)n1)OC2 (stereo not drawn) [Compound 1-87],100,100,100
CC1OC(c2csc(C3CCN(C(=O)Cn4nc(C(F)(F)F)cc4C(F)(F)F)CC3)n2)OCc2ccccc21 (stereo not drawn) [Compound 1-88],100,100,100
O=C(Cn1nc(C(F)(F)F)cc1C(F)(F)F)N1CCC(c2nc(C3OCc4cc5ccccc5cc4CO3)cs2)CC1 [Compound 1-89],80,100,100
CC(C)(C)c1ccc2c(c1)COC(c1csc(C3CCN(C(=O)Cn4nc(C(F)(F)F)cc4C(F)(F)F)CC3)n1)OC2 (stereo not drawn) [Compound 1-92],100,90,90
O=C(Cn1nc(C(F)(F)F)cc1C(F)(F)F)N1CCC(c2nc(C3OCc4cccc(Cl)c4CO3)cs2)CC1 (stereo not drawn) [Compound 1-93],100,100,100
Cc1cc(C(F)(F)F)nn1CC(=O)N1CCC(c2nc(C3OCc4cccc(OC(F)F)c4CO3)cs2)CC1 (stereo not drawn) [Compound 1-94],100,100,100
Cc1cc(C(F)(F)F)nn1CC(=O)N1CCC(c2nc(C3OCc4ccc(Br)cc4CO3)cs2)CC1 (stereo not drawn) [Compound 1-98],100,100,100
O=C(Cn1nc(C(F)F)cc1C(F)F)N1CCC(c2nc(C3OCc4ccc(Br)cc4CO3)cs2)CC1 (stereo not drawn) [Compound 1-99],100,100,100
Cc1cc(C(F)(F)F)nn1CC(=O)N1CCC(c2nc(C3OCc4c(I)ccc(OS(C)(=O)=O)c4CO3)cs2)CC1 (stereo not drawn) [Compound 1-101],100,100,100
Cc1cc(C(F)(F)F)nn1CC(=O)N1CCC(c2nc(C3OCc4c(Cl)ccc(OS(C)(=O)=O)c4CO3)cs2)CC1 (stereo not drawn) [Compound 1-102],100,100,100
Cc1cc(C(F)(F)F)nn1CC(=O)N1CCC(c2nc(C3OCc4c(OS(C)(=O)=O)ccc(OS(C)(=O)=O)c4CO3)cs2)CC1 [Compound 1-103],100,100,100
